Several values for one entry are separate records, joined by “and”; a condition that tells them apart may be missing. Equal values may be shown once. Entries after “also recorded” stand apart in the source; their conditions may differ. No end group written: not given here.
Columns and labels:
relaxin antibody = test: Antibody-based ELISA of PEGylated relaxin; format: binding; conditions: Quantikine ELISA, six dilutions
[1] = tested on: rat shoulder contracture model (glenohumeral joint); test: ROM measurement in rat shoulder contracture model (Example 2); format: in vivo, Sprague Dawley rats; conditions: for Final ROM, Total ROM: 8 weeks follow-up; for Difference ROM (% Δ°), External ROM / Difference ROM (% Δ°), Internal ROM / Difference ROM (% Δ°), Total ROM: final versus baseline
Method: On the approval of the Institutional Animal Care and Use Committee (IACUC) at Beth Israel Deaconess Medical Center, 20 Female Sprague Dawley rats (250-300 g, Charles River Laboratories, Inc., Wilmington, Mass., USA) were chosen for this study. Baseline ROM measurements were taken for both forelimbs of each rat prior to any surgical intervention. Torque measurements were recorded at […] (τINT) and 60° of external rotation (τOUT), totaling a full 160° range of motion (ROM) (FIG. 4, Panels B and C). These measurements were required as they indicate a baseline for normal torque necessary to achieve both rotations. The specific rotation angles were chosen under fluoroscopic guidance to ensure minimal scapular recruitment, while simultaneously allowing for maximum humeral rotation within the joint space. Each ROM measurement was repeated three times to ensure consistency. All measurements were also performed under anesthesia to prevent any active muscle activation from interfering with the passive capsular resistance. Induction of the rats was performed at 5% isoflurane inhalation, and maintenance was managed at a 2% isoflurane dose.
After the baseline measurements and under anesthesia, 20 rats were subjected to the immobilization procedure as outlined in Example 1 and in Villa-Camacho et al., Journal of Shoulder and Elbow Surgery, 2015, 24(11):1809-16, to induce fibrosis. In short, an incision was created longitudinally on the left limb, perpendicular to the scapular spine, to expose both the scapula and humerus. A No. 2-0 Ethibond polyester suture (Ethicon, San Lorenzo, PR, USA) was used to immobilize the humerus to the scapula by passing two loops through the medial border of the scapula and against the humeral shaft (FIG. 4, Panel A). Care was taken to ensure that the sutures avoided critical vasculature, musculature, and nerves. Each rat was maintained under fixation for 8 weeks. After the eighth week, the suture fixations were removed, and the rats were randomly placed in four groups: (1) intra-articular relaxin, single dose (IAS) (n=5); (2) intra-articular relaxin, multiple doses (IAM) (n=5); (3) intravenous relaxin, multiple doses (IVM) (n=5); and (4) untreated surgical controls (n=5). The sample size was determined with a power of 0.80 and α=0.05 if a 10% increase in range of motion from contracture was to be expected.
The mechanical testing apparatus was assembled with four core components and controlled with a computer through custom-built software written on MATLAB 7.13.0.564 (The MathWorks, Inc., Natick, Mass., USA). Movement of the forelimb was mediated by a stepper motor controlled by a microcontroller (UNO R3; Arduino, Torino, Italy). The motor was then positioned axially with the reaction torque sensor (TFF400; FUTEK Advanced Sensor Technology, Inc., Irvine, Calif., USA), which measured torque and was utilized as an input feedback for the system. Along the same axis, the arm clamp and the 3-axis inclinometer (3DM-GX3-15; MicroStrain, Inc., Williston, Vt., USA) were attached on the sensing side of the torque sensor. The inclinometer also provided both positional feedback as well as angular measurements for the system. The entire assembly was positioned above the rat with the sensing plane parallel to the ground to ensure that gravity had little impact on the torque measurements (FIG. 4). The apparatus was programmed to move to a specified torque or angle for internal and external rotation for each rat. Plastic zip ties were used to secure the rat forelimb in the apparatus. Care was taken to prevent any injury, and the apparatus was programmed with an internal and external limit switch in the case the apparatus operated abnormally.
Immediately after removal of the restraining sutures, relaxin was administered to the noncontrol group rats. […]

[2] = tested on: glenohumeral joint capsule and articular cartilage; format: in vivo, Sprague Dawley rats
Description: At the conclusion of the follow-up period, the rats were euthanized according to IACUC guidelines. The rats were weighed and then subjected to CO2 exposure for euthanasia, and further confirmed through a bilateral thoracotomy. The shoulders were bilaterally harvested by disarticulating the humerus from the ulna, and removing the scapula from the clavicle and thoracic cavity. Excess muscle tissue not immediately surrounding the glenohumeral joint capsule was removed. The excised shoulders were decalcified for two months in a solution of ethylenediaminetetraacetic acid (EDTA), which was changed every two to three days. Once decalcified, the shoulders were affixed in a solution of 10% formalin and then mounted in paraffin stacks for histological sectioning at the Beth Israel Deaconess Medical Center (BIDMC) Histology Core. These stacks were mounted so that coronal slicing could be obtained. The slices were stained with hematoxylin and eosin (H&E) and examined for any morphological changes. These slices were taken from a posterior region of humeral head to better find evidence of periarticular adhesions (Brue et al., Knee Surg. Sports Traumatol. Arthrosc., 2007, 15(8):1048-54; White et al., Radiographics, 2016, 36(3):824-39). Further slices, taken mid-coronally, were also stained with fibronectin antibodies paired with peroxidase to further examine fibrotic characteristics such as capsular thickening. Collagen III, α-smooth muscle actin, and other acute fibrotic markers were not chosen for analysis, since histologic sectioning would occur 4 months after contracture creation. The specimen chosen to undergo histological analysis were the surgical control group and the IAM group. The IAM group was chosen because this group received the highest and most frequent dose of relaxin, and was, therefore, the best candidate to showcase any morphologic changes due to relaxin administration. The contralateral shoulders from the surgical control group were used to model a healthy control shoulder for histologic comparisons.

[3] = tested on: NIH 373 murine fibroblasts; test: cAMP levels in fibroblasts exposed to relaxin; format: cell-based; conditions: cultured NIH 373 murine fibroblasts exposed to relaxin
Method: The activity of recombinant relaxin (RLN2) was validated by measuring upregulation in the production of cAMP, a secondary metabolite of the relaxin signaling pathway. Increases in cAMP lead to increased MMP expression and decreased collagen and TIMP expression. To validate the activity of RLN2, cultured NIH 373 murine fibroblasts were exposed to relaxin, and the resulting cAMP levels were measured.

[4] = in vivo; cited from earlier work
[5] = IAM: intra-articular, multiple doses, final measurement
[6] = IAS: intra-articular, single dose, final measurement
[7] = IVM: intravenous, multiple doses, final measurement

## PEGylated relaxin: relaxin reacted with mPEG-SVA (2000 MW); product conjugated with two PEG chains (chain 1 QLYSALANKCCHVGCTKRSLARFC; chain 2 DSWMEEVIKLCGRELVRAQIAICGMSTWS; not fully specified (bridges); ends and bridges not checked)
Relaxin antibody
  Recognition by the relaxin antibody: recognized by the relaxin antibody

## relaxin
[1]; 5 intra-articular doses of 0.0005 mg over 10 days (total 0.0025 mg)
  Treatment of shoulder contracture, overall result: effective in treating shoulder contracture; also recorded: full recovery with increased ROM for 60 days
[1]; IAM, IAS and IVM groups
  ROM of healthy contralateral forelimbs / systemic joint laxity: no significant change from baseline; also recorded: no systemic joint laxity was present
[1]; IAM: intra-articular, multiple doses (5 x 0.0005 mg every 2 days), final measurement
  Final ROM, Total ROM: 159.13 ± 6.97 °
[1]; [5]
  Final ROM, External ROM: 60.27 ± 11.05 °
  Final ROM, Internal ROM: 98.87 ± 10.63 °
[1]; IAM, final measurement, P<0.01
  Total ROM compared with surgical control group (statistics): significantly improved when compared with the control group
[1]; IAM, final measurement, P=0.94
  Total ROM compared with baseline measurements (statistics): not statistically different from the baseline measurements
[1]; IAM
  Difference ROM (% Δ°), External ROM: 1.01%
  Difference ROM (% Δ°), Internal ROM: −0.27%
  Difference ROM (% Δ°), Total ROM: 0.21%
[1]; IAS: intra-articular, single dose 0.0005 mg, final measurement
  Final ROM, Total ROM: 138.40 ± 15.34 °
[1]; [6]
  Final ROM, External ROM: 63.13 ± 14.20 °
  Final ROM, Internal ROM: 75.27 ± 15.62 °
[1]; IAS, final measurement
  Increase in total ROM compared with surgical control (statistics): not found to be significant
  Restriction of total ROM compared with baseline: −21.72 °
[1]; IAS
  Difference ROM (% Δ°), External ROM: 5.22%
  Difference ROM (% Δ°), Internal ROM: −24.83%
  Difference ROM (% Δ°), Total ROM: −13.57%
[1]; IAS, measurement immediately following day 0, P=0.025
  Improvement in ROM over the surgical control group: 11.87 °
[1]; IVM: intravenous, multiple doses (5 x 0.17 mg every 2 days), final measurement
  Final ROM, Total ROM: 127.93 ± 16.35 °
[1]; [7]
  Final ROM, External ROM: 54.67 ± 15.30 °
  Final ROM, Internal ROM: 73.27 ± 10.35 °
[1]; IVM, final measurement
  Restriction of total ROM compared with baseline: −30.73 °
[1]; IVM
  Difference ROM (% Δ°), External ROM: −7.87%
  Difference ROM (% Δ°), Internal ROM: −26.24%
  Difference ROM (% Δ°), Total ROM: −19.42% and −19.37%
[1]; single intra-articular injection of 0.0005 mg
  Treatment of shoulder contracture, overall result: ineffective
[2]; IAM group, end of follow-up
  Capsular adhesions, H&E stained sections: lacked any apparent adhesions
  Capsular tissue thickness, fibronectin stain: return to normal thickness in capsular tissue
  Peroxidase intensity (fibronectin stain) in and around capsular tissue: reduction in peroxidase intensity
[2]; rat, in vivo
  Articular cartilage quality, OARSI grading system: between a grade 1 and grade 2 level of osteoarthritis
  Fibrillation of the articular surface, H&E: both superficial and deep fibrillation within the articular surface
[3]
  cAMP levels: dose-dependent upregulation of cAMP levels
[4]
  Half-life: about 2.5 hours
